Reference: BindingDB's records for doi:10.1016/j.bmcl.2009.08.049 (Genentech, 2009)

biological target: Sonic hedgehog protein (Mus musculus, UniProt Q62226); assay: Inhibition of SHH in mouse C3H10T1/2 cells by Gli-luciferase reporter gene assay
Sequence (Q62226 25-198 limits assumed): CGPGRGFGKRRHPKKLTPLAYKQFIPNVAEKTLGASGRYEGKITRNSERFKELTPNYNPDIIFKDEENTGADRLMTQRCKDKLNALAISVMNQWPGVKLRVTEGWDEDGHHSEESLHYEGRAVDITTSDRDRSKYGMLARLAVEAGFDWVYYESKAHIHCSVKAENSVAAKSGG

| IC50 [µM] | SMILES |
| --- | --- |
| 0.8 | O=C(Nc1ccc(Cl)c(-c2ccccn2)c1)c1ccccc1 [N-(4-chloro-3-(pyridin-2-yl)phenyl)benzamide] |
| 8 | Cc1nc(C(F)(F)F)ccc1C(=O)Nc1ccc(Cl)c(-c2ncccn2)c1 [N-(4-chloro-3-(pyrimidin-2-yl)phenyl)-2-methyl-6-(trifluoromethyl)nicotinamide] |
| 0.14 | Cc1nc(C(F)(F)F)ccc1C(=O)Nc1ccc(Cl)c(C(=O)Nc2ccccc2)c1 [N-(4-chloro-3-(phenylcarbamoyl)phenyl)-2-methyl-6-(trifluoromethyl)nicotinamide] |
| 10 | Cc1nc(C(F)(F)F)ccc1C(=O)Nc1ccc(Cl)c(-c2cccnc2)c1 [N-(4-chloro-3-(pyridin-3-yl)phenyl)-2-methyl-6-(trifluoromethyl)nicotinamide] |
| 0.12 | CS(=O)(=O)c1cccc(C(=O)Nc2ccc(Cl)c(-c3ccccn3)c2)c1 [N-(4-chloro-3-(pyridin-2-yl)phenyl)-3-(methylsulfonyl)benzamide] |
| 0.07 | Cc1nc(C(F)(F)F)ccc1C(=O)Nc1ccc(Cl)c(-c2nc3ccccc3s2)c1 [N-(3-(benzo[d]thiazol-2-yl)-4-chlorophenyl)-2-methyl-6-(trifluoromethyl)nicotinamide] |
| 1.5 | O=C(Nc1ccc(Cl)c(-c2ccccn2)c1)c1cccc(Cl)c1 [3-chloro-N-(4-chloro-3-(pyridin-2-yl)phenyl)benzamide] |
| 0.55 | Cc1nc(C(F)(F)F)ccc1C(=O)Nc1ccc(Cl)c(-c2ccn(C)n2)c1 [N-(4-chloro-3-(1-methyl-1H-pyrazol-3-yl)phenyl)-2-methyl-6-(trifluoromethyl)nicotinamide] |
| 2.4 | Cc1nc(C(F)(F)F)ccc1C(=O)Nc1ccc(Cl)c(-c2ccncc2)c1 [N-(4-chloro-3-(pyridin-4-yl)phenyl)-2-methyl-6-(trifluoromethyl)nicotinamide] |
| 0.009 | Cc1nc(C(F)(F)F)ccc1C(=O)Nc1ccc(Cl)c(-c2nc3ccccc3n2C)c1 [N-(4-chloro-3-(1-methyl-1H-benzo[d]imidazol-2-yl)phenyl)-2-methyl-6-(trifluoromethyl)nicotinamide] |
| 0.45 | Cc1nc(C(F)(F)F)ccc1C(=O)Nc1ccc(Cl)c(-n2cccn2)c1 [N-(4-chloro-3-(1H-pyrazol-1-yl)phenyl)-2-methyl-6-(trifluoromethyl)nicotinamide] |
| 1.7 | Cc1nc(C(F)(F)F)ccc1C(=O)Nc1ccc(Cl)c(-c2cnccn2)c1 [N-(4-chloro-3-(pyrazin-2-yl)phenyl)-2-methyl-6-(trifluoromethyl)nicotinamide] |
| 0.7 | O=C(Nc1ccc(Cl)c(-c2ccccn2)c1)c1ccncc1 [N-(4-chloro-3-(pyridin-2-yl)phenyl)isonicotinamide] |
| 0.256 | Cc1c[nH]c(-c2cc(NC(=O)c3ccc(C(F)(F)F)nc3C)ccc2Cl)n1 [N-(4-chloro-3-(5-methyl-1H-imidazol-2-yl)phenyl)-2-methyl-6-(trifluoromethyl)nicotinamide] |
| 0.042 | Cc1nc(C(F)(F)F)ccc1C(=O)Nc1ccc(Cl)c(-c2ccccn2)c1 [N-(4-chloro-3-(pyridin-2-yl)phenyl)-2-methyl-6-(trifluoromethyl)nicotinamide] |
| 0.012 | Cc1nc(C(F)(F)F)ccc1C(=O)Nc1ccc(Cl)c(-c2nc3ccccc3[nH]2)c1 [N-(3-(1H-benzo[d]imidazol-2-yl)-4-chlorophenyl)-2-methyl-6-(trifluoromethyl)nicotinamide] |
| 4.2 | Cc1nc(C(F)(F)F)ccc1C(=O)Nc1ccc(Cl)c(-c2cc3ccccn3c2)c1 [N-(4-chloro-3-(indolizin-2-yl)phenyl)-2-methyl-6-(trifluoromethyl)nicotinamide] |
| 1.5 | O=C(Nc1ccc(Cl)c(-c2ccccn2)c1)c1ccc(Cl)cc1 [4-chloro-N-(4-chloro-3-(pyridin-2-yl)phenyl)benzamide] |
| 3 | O=C(Nc1ccc(Cl)c(-c2ccccn2)c1)c1ccccn1 [N-(4-chloro-3-(pyridin-2-yl)phenyl)picolinamide] |
| 0.052 | Cc1nc(C(F)(F)F)ccc1C(=O)Nc1ccc(Cl)c(-c2cnc3ccccc3n2)c1 [N-(4-chloro-3-(quinoxalin-2-yl)phenyl)-2-methyl-6-(trifluoromethyl)nicotinamide] |
| 9 | Cc1nc(C(F)(F)F)ccc1C(=O)Nc1ccc(Cl)c(-c2cc[nH]n2)c1 [N-(4-chloro-3-(1H-pyrazol-3-yl)phenyl)-2-methyl-6-(trifluoromethyl)nicotinamide] |
| 0.11 | O=C(Nc1ccc(Cl)c(-c2ccccn2)c1)c1ccccc1Cl [2-chloro-N-(4-chloro-3-(pyridin-2-yl)phenyl)benzamide] |
| 0.08 | Cc1nc(C(F)(F)F)ccc1C(=O)Nc1ccc(Cl)c(-n2cc3ccccc3n2)c1 [N-(4-chloro-3-(2H-indazol-2-yl)phenyl)-2-methyl-6-(trifluoromethyl)nicotinamide] |
| 0.5 | Cc1nc(C(F)(F)F)ccc1C(=O)Nc1ccc(Cl)c(-c2cc3ccccc3[nH]2)c1 [N-(4-chloro-3-(1H-indol-2-yl)phenyl)-2-methyl-6-(trifluoromethyl)nicotinamide] |
| 0.6 | O=C(Nc1ccc(Cl)c(-c2ccccn2)c1)c1cccnc1 [N-(4-chloro-3-(pyridin-2-yl)phenyl)nicotinamide] |
| 0.15 | Cc1nc(C(F)(F)F)ccc1C(=O)Nc1ccc(Cl)c(-c2nc3c(n2C)CCCC3)c1 [N-(4-chloro-3-(1-methyl-4,5,6,7-tetrahydro-1H-benzo[d]imidazol-2-yl)phenyl)-2-methyl-6-(trifluoromethyl)nicotinamide] |
| 0.17 | Cc1nc(C(F)(F)F)ccc1C(=O)Nc1ccc(Cl)c(-c2cc3ccccn3n2)c1 [N-(4-chloro-3-(pyrazolo[1,5-a]pyridin-2-yl)phenyl)-2-methyl-6-(trifluoromethyl)nicotinamide] |
| 0.13 | Cc1ccc(C(=O)Nc2ccc(Cl)c(-c3ccccn3)c2)c(C)n1 [N-(4-chloro-3-(pyridin-2-yl)phenyl)-2,6-dimethylnicotinamide] |
| 0.2 | Cc1nc(C(F)(F)F)ccc1C(=O)Nc1ccc(Cl)c(-c2cn3ccsc3n2)c1 [N-(4-chloro-3-(imidazo[2,1-b]thiazol-6-yl)phenyl)-2-methyl-6-(trifluoromethyl)nicotinamide] |
| 0.04 | CS(=O)(=O)c1ccc(C(=O)Nc2ccc(Cl)c(-c3ccccn3)c2)cc1 [N-(4-chloro-3-(pyridin-2-yl)phenyl)-4-(methylsulfonyl)benzamide] |
